Laboratory results from patent US20200368247A1, “CENICRIVIROC FOR THE TREATMENT OF FIBROSIS” (Tobira Therapeutics, Inc., priority 2014, published 2020).

How the values were obtained:
Type in all cases: in vivo, human
[1] = Study 202 biomarkers of inflammation
Protocol: As an exploratory analysis, levels of inflammation biomarkers MCP-1, sCD14, high sensitivity C-reactive protein [hs-CRP], interleukin-6 [IL-6], D-dimer, and fibrinogen) were measured. Baseline values and changes from baseline at Week 24 and Week 48 of MCP-1, sCD14, hs-CRP, IL-6, D-dimer, and fibrinogen are summarized in Table 25.
The sCD14 samples were originally analyzed in 2 separate batches: Batch 1 included samples leading up to the Week 24 primary analysis and Batch 2 included Week 32 and Week 48 (end of study) samples. A repeat analysis of archived samples all analyzed in one batch was conducted for consistency in analysis across time points. To control for the effects of covariates, a linear mixed-model repeated-measures analysis was conducted on the changes from baseline in sCD14 (analysis dated September 2013).

[2] = Study 202 fasting metabolic laboratory parameters
Text: All abnormalities in total cholesterol, LDL cholesterol, triglycerides, or glucose were Grade 1 or Grade 2.
Mean baseline values and changes from baseline in HbA1c, HOMA-IR, fasting LDL, fasting HDL, fasting total cholesterol, fasting total cholesterol/HDL ratio, and fasting triglycerides are shown in Table 36.

[3] = Study 202 post-hoc APRI and FIB-4 fibrosis index scores
Protocol: APRI and FIB-4 scores were calculated. Change in score category from baseline (BL) to Weeks 24 and 48 was assessed in patients with non-missing data. Correlations between changes from BL in APRI and FIB-4 scores, and MCP-1 (CCR2 ligand) and sCD14 (inflammatory biomarker) levels were evaluated.

[4] = All CVC (N = 115), EFV (N = 28), through Week 48

## O=C1Nc2ccc(Cl)cc2[C@@](C#CC2CC2)(C(F)(F)F)O1 [EFV, efavirenz, reference compound]
[1]; EFV 600 mg
  sCD14 Baseline value, Mean: 2e+06 pg/mL
  sCD14 change from baseline at Week 12, Mean: 90000 pg/mL
  sCD14 change from baseline at Week 12, Median: 180000 pg/mL
  sCD14 change from baseline at Week 24, Mean: 230000 pg/mL
  sCD14 change from baseline at Week 24, Median: 130000 pg/mL
  sCD14 change from baseline at Week 32, Mean: 480000 pg/mL
  sCD14 change from baseline at Week 32, Median: 170000 pg/mL
  sCD14 change from baseline at Week 48, Mean: 640000 pg/mL
  sCD14 change from baseline at Week 48, Median: 460000 pg/mL
[1]; Study 202, up to Week 48
  plasma MCP-1 over time: remained at baseline values
[2]; [4]
  Any fasting laboratory abnormality, worst Grade 1: 6 (21%) n (%)
  Any fasting laboratory abnormality, worst Grade 2: 3 (11%) n (%)
  Any fasting laboratory abnormality, worst Grade 3: 0 n (%)
  Any fasting laboratory abnormality, worst Grade 4: 0 n (%)
  Any graded (Grade 1-4) fasting laboratory abnormality: 9 (32%) n (%)
  Fasting LDL cholesterol abnormality, Grade 1: 3 (11%) n (%)
  Fasting LDL cholesterol abnormality, Grade 2: 3 (11%) n (%)
  Fasting LDL cholesterol abnormality, Grade 3: 0 n (%)
  Fasting LDL cholesterol abnormality, Grade 4: 0 n (%)
  Fasting LDL cholesterol abnormality, any grade: 6 (21%) n (%)
  Fasting glucose (serum, high) abnormality, Grade 1: 2 (7%) n (%)
  Fasting glucose (serum, high) abnormality, Grade 2: 0 n (%)
  Fasting glucose (serum, high) abnormality, Grade 3: 0 n (%)
  Fasting glucose (serum, high) abnormality, Grade 4: 0 n (%)
  Fasting glucose (serum, high) abnormality, any grade: 2 (7%) n (%)
  Fasting total cholesterol abnormality, Grade 1: 6 (21%) n (%)
  Fasting total cholesterol abnormality, Grade 2: 3 (11%) n (%)
  Fasting total cholesterol abnormality, Grade 3: 0 n (%)
  Fasting total cholesterol abnormality, Grade 4: 0 n (%)
  Fasting total cholesterol abnormality, any grade: 9 (32%) n (%)
  Fasting triglycerides abnormality, Grade 1: 0 n (%)
  Fasting triglycerides abnormality, Grade 2: 0 n (%)
  Fasting triglycerides abnormality, Grade 3: 0 n (%)
  Fasting triglycerides abnormality, Grade 4: 0 n (%)
  Fasting triglycerides abnormality, any grade: 0 n (%)
[2]; All CVC, EFV, Week 4
  Fasting HDL, mean change from baseline: 5.90 mg/dL
  Fasting total cholesterol, mean change from baseline: 19 mg/dL
  Fasting total cholesterol/HDL ratio, mean change from baseline: −0.07
  Fasting triglycerides, mean change from baseline: 23 mg/dL
  HOMA-IR, mean change from baseline: 0.30
  HbA1c, mean change from baseline: −0.01 % Hb
[2]; All CVC, EFV, Week 12
  Fasting total cholesterol, mean change from baseline: 18 mg/dL
  Fasting total cholesterol/HDL ratio, mean change from baseline: −0.41
  Fasting triglycerides, mean change from baseline: 3 mg/dL
  HOMA-IR, mean change from baseline: 0.06
  HbA1c, mean change from baseline: −0.07 % Hb
[2]; All CVC, EFV, Week 24
  Fasting total cholesterol, mean change from baseline: 24 mg/dL
  Fasting total cholesterol/HDL ratio, mean change from baseline: −0.47
  Fasting triglycerides, mean change from baseline: 10 mg/dL
  HbA1c, mean change from baseline: −0.01 % Hb
[2]; All CVC, EFV, Week 48
  Fasting total cholesterol, mean change from baseline: 26 mg/dL
  HOMA-IR, mean change from baseline: −0.12
  HbA1c, mean change from baseline: 0.08 % Hb
[2]; EFV, through Week 48
  change in LDL cholesterol and HDL cholesterol: increases
[3]; Baseline
  APRI 0.5-1.5, patients: 4%
  APRI <0.5, patients: 96%
  FIB-4 <1.45, patients: 100%
[3]; EFV arm, Weeks 24 and 48
  subjects with decrease in FIB-4 score by one category: no subject
[3]; Week 24
  APRI <0.5, patients: 100%
  APRI decreased 1 category from baseline, patients: 5%
  FIB-4 <1.45, patients: 100%
[3]; Week 48
  APRI <0.5, patients: 100%
  APRI decreased 1 category from baseline, patients: 6%
  FIB-4 1.45-3.25, patients: 6%
  FIB-4 <1.45, patients: 94%
